In US10828315B2 (Madrigal Pharmaceuticals, Inc., priority 2013, dated 2020):

Columns and labels:
[1] = system: human urinary bladder cancer cell line SW780; experiment: Cytotoxicity assay (CellTiter-Glo, 72 h), SW780; type: cell-based; conditions: SW780, 72 hours, read-out: Cytotoxicity (IC50, nM) SW-780
Method: Cytotoxicity of SDC-TRAP molecules was determined in three cancer cell lines. […] 80 μL of CellTiter-Glo was added to each well, followed by room temperature incubation in the dark for 15 minutes. Cell was determined by luminescence. IC50 was calculated using XLfit™ software.

[2] = Metabolite profiling and identification; type: in vitro ADME; set-up: key: —: Not detected; conditions: for Metabolite Hydrolysis (SN-38): M+1 393.3; for Metabolite Hydrolysis (SN-38) + H2O (carboxylate form): M+1 411.3; for Metabolite Hydrolysis (SDC-TRAP-0062): M+1 462.3; for Metabolite Hydrolysis (SDC-TRAP-0062) + N-dealkylation + glucuronide: M+1 527.3; for Metabolite Hydrolysis (SN-38) + glucuronidation: M+1 569.3; for Metabolite Hydrolysis (SN-38) + hydroxylation + glucuronidation: M+1 585.3; for Metabolite Hydrolysis (SDC-TRAP-0062) + glucuronidation: M+1 638.3; for Metabolite Hydrolysis (SDC-TRAP-0062) + oxidation + glucuronide: M+1 652.3; for Metabolite Hydrolysis (SDC-TRAP-0062) + di-oxidation + glucuronide: M+1 668.3; for Metabolite Hydrolysis (SDC-TRAP-0062) + H2O (ring opened) + glucuronide: M+1 670.3; for Metabolite Hydroxylation: M+1 896.3; for Metabolite Carboxylate form: M+1 898.3; for Metabolite Di-hydroxylation: M+1 912.4; for Metabolite Glucuronidation: M+1 1056.4
From the text: Metabolite Profiling and Identification: Metabolite profiling/identification for SDC-TRAP-0063 (M+1:880.3)

## CCc1c2c(nc3ccc(OC(=O)N4CCC(CCn5ccc6cc(-n7c(O)nnc7-c7cc(C(C)C)c(O)cc7O)ccc65)CC4)cc13)-c1cc3c(c(=O)n1C2)COC(=O)[C@]3(O)CC [SDC-TRAP-0063, 4,11-diethyl-4-hydroxy-3,14-dioxo-3,4,12,14-tetrahydro-1H-pyrano[3′,4′:6,7]indolizino[1,2-b]quinolin-9-yl 4-(2-(5-(3-(2,4-dihydroxy-5-isopropylphenyl)-5-hydroxy-4H-1,2,4-triazol-4-yl)-1H-indol-1-yl)ethyl)piperidine-1-carboxylate]
[1]
  IC50: 261 nM
[2]; Hepatocytes Dog
  Metabolite Hydrolysis (SN-38): √
  Metabolite Hydrolysis (SN-38) + H2O (carboxylate form): —
  Metabolite Hydrolysis (SDC-TRAP-0062): —
  Metabolite Hydrolysis (SDC-TRAP-0062) + N-dealkylation + glucuronide: —
  Metabolite Hydrolysis (SN-38) + glucuronidation: —
  Metabolite Hydrolysis (SN-38) + hydroxylation + glucuronidation: —
  Metabolite Hydrolysis (SDC-TRAP-0062) + glucuronidation: —
  Metabolite Hydrolysis (SDC-TRAP-0062) + oxidation + glucuronide: —
  Metabolite Hydrolysis (SDC-TRAP-0062) + di-oxidation + glucuronide: —
  Metabolite Hydrolysis (SDC-TRAP-0062) + H2O (ring opened) + glucuronide: —
  Metabolite Hydroxylation: √
  Metabolite Carboxylate form: √
  Metabolite Di-hydroxylation: √
  Metabolite Glucuronidation: √
[2]; Hepatocytes Human
  Metabolite Hydrolysis (SN-38): —
  Metabolite Hydrolysis (SN-38) + H2O (carboxylate form): —
  Metabolite Hydrolysis (SDC-TRAP-0062): —
  Metabolite Hydrolysis (SDC-TRAP-0062) + N-dealkylation + glucuronide: —
  Metabolite Hydrolysis (SN-38) + glucuronidation: √
  Metabolite Hydrolysis (SN-38) + hydroxylation + glucuronidation: —
  Metabolite Hydrolysis (SDC-TRAP-0062) + glucuronidation: —
  Metabolite Hydrolysis (SDC-TRAP-0062) + oxidation + glucuronide: —
  Metabolite Hydrolysis (SDC-TRAP-0062) + di-oxidation + glucuronide: —
  Metabolite Hydrolysis (SDC-TRAP-0062) + H2O (ring opened) + glucuronide: —
  Metabolite Hydroxylation: —
  Metabolite Carboxylate form: —
  Metabolite Di-hydroxylation: —
  Metabolite Glucuronidation: √
[2]; Hepatocytes Monkey
  Metabolite Hydrolysis (SN-38): √
  Metabolite Hydrolysis (SDC-TRAP-0062): —
  Metabolite Hydrolysis (SDC-TRAP-0062) + N-dealkylation + glucuronide: —
  Metabolite Hydrolysis (SN-38) + glucuronidation: √
  Metabolite Hydrolysis (SN-38) + hydroxylation + glucuronidation: √
  Metabolite Hydrolysis (SDC-TRAP-0062) + glucuronidation: —
  Metabolite Hydrolysis (SDC-TRAP-0062) + oxidation + glucuronide: —
  Metabolite Hydrolysis (SDC-TRAP-0062) + di-oxidation + glucuronide: —
  Metabolite Hydrolysis (SDC-TRAP-0062) + H2O (ring opened) + glucuronide: —
  Metabolite Hydroxylation: —
  Metabolite Carboxylate form: —
  Metabolite Di-hydroxylation: —
[2]; Hepatocytes Mouse
  Metabolite Hydrolysis (SN-38): —
  Metabolite Hydrolysis (SN-38) + H2O (carboxylate form): —
  Metabolite Hydrolysis (SDC-TRAP-0062): —
  Metabolite Hydrolysis (SDC-TRAP-0062) + N-dealkylation + glucuronide: —
  Metabolite Hydrolysis (SN-38) + glucuronidation: —
  Metabolite Hydrolysis (SN-38) + hydroxylation + glucuronidation: —
  Metabolite Hydrolysis (SDC-TRAP-0062) + glucuronidation: —
  Metabolite Hydrolysis (SDC-TRAP-0062) + oxidation + glucuronide: —
  Metabolite Hydrolysis (SDC-TRAP-0062) + di-oxidation + glucuronide: —
  Metabolite Hydrolysis (SDC-TRAP-0062) + H2O (ring opened) + glucuronide: —
  Metabolite Hydroxylation: —
  Metabolite Carboxylate form: —
  Metabolite Di-hydroxylation: —
  Metabolite Glucuronidation: √
[2]; Hepatocytes Rat
  Metabolite Hydrolysis (SN-38): —
  Metabolite Hydrolysis (SN-38) + H2O (carboxylate form): —
  Metabolite Hydrolysis (SDC-TRAP-0062): —
  Metabolite Hydrolysis (SDC-TRAP-0062) + N-dealkylation + glucuronide: —
  Metabolite Hydrolysis (SN-38) + glucuronidation: √
  Metabolite Hydrolysis (SN-38) + hydroxylation + glucuronidation: —
  Metabolite Hydrolysis (SDC-TRAP-0062) + glucuronidation: —
  Metabolite Hydrolysis (SDC-TRAP-0062) + oxidation + glucuronide: —
  Metabolite Hydrolysis (SDC-TRAP-0062) + di-oxidation + glucuronide: —
  Metabolite Hydrolysis (SDC-TRAP-0062) + H2O (ring opened) + glucuronide: —
  Metabolite Hydroxylation: —
  Metabolite Carboxylate form: —
  Metabolite Di-hydroxylation: —
[2]; Mouse in vivo Plasma 6 h
  Metabolite Hydrolysis (SN-38): √
  Metabolite Hydrolysis (SN-38) + H2O (carboxylate form): √
  Metabolite Hydrolysis (SDC-TRAP-0062): √
  Metabolite Hydrolysis (SDC-TRAP-0062) + N-dealkylation + glucuronide: √
  Metabolite Hydrolysis (SN-38) + glucuronidation: √
  Metabolite Hydrolysis (SN-38) + hydroxylation + glucuronidation: —
  Metabolite Hydrolysis (SDC-TRAP-0062) + glucuronidation: √
  Metabolite Hydrolysis (SDC-TRAP-0062) + oxidation + glucuronide: √
  Metabolite Hydrolysis (SDC-TRAP-0062) + di-oxidation + glucuronide: √
  Metabolite Hydrolysis (SDC-TRAP-0062) + H2O (ring opened) + glucuronide: √
  Metabolite Hydroxylation: —
  Metabolite Carboxylate form: √
  Metabolite Di-hydroxylation: —
  Metabolite Glucuronidation: √
[2]; Mouse in vivo Tumor 24 h
  Metabolite Hydrolysis (SN-38): √
  Metabolite Hydrolysis (SN-38) + H2O (carboxylate form): √
  Metabolite Hydrolysis (SDC-TRAP-0062): √
  Metabolite Hydrolysis (SDC-TRAP-0062) + N-dealkylation + glucuronide: —
  Metabolite Hydrolysis (SN-38) + glucuronidation: √
  Metabolite Hydrolysis (SN-38) + hydroxylation + glucuronidation: —
  Metabolite Hydrolysis (SDC-TRAP-0062) + glucuronidation: √
  Metabolite Hydrolysis (SDC-TRAP-0062) + oxidation + glucuronide: —
  Metabolite Hydrolysis (SDC-TRAP-0062) + di-oxidation + glucuronide: —
  Metabolite Hydrolysis (SDC-TRAP-0062) + H2O (ring opened) + glucuronide: —
  Metabolite Hydroxylation: —
  Metabolite Carboxylate form: √
  Metabolite Di-hydroxylation: —
  Metabolite Glucuronidation: √
